Assays:
PARP = molecular target: T1, PARP (Homo sapiens, UniProt P09874); assay: PARP ELISA (ELISA-based colorimetric PARP/Apoptosis Assay kit), inhibition of PARP catalytic activity; assay type: biochemical; conditions: pIC50 = -log10 IC50 (molar); 0.1 nM PARP stock, 100 μM NAD+ stock with activated DNA, 10 min catalysis
T1 construct: purchased Trevigen 4684-096-01 (enzyme); kit 4684-096-K HT
Description: Inhibition Constant (IC50) from PARP ELISA
Inhibition of PARP catalytic activity was determined by use of an ELISA-based colorimetric PARP/Apoptosis Assay kit (part number 4684-096-K HT, Trevigen). To each histone coated well in the 96-well plate supplied by the manufacturer (part number 4677-096-P) is added 39 μL of PARP buffer (part number 4671-096-02) and 1 μL of test compound dissolved in DMSO (diluted serially 3-fold 11 times). After mixing, 5 μL of 0.1 nM PARP (part number 4684-096-01) is added and the solution allowed to stand at ambient temperature for 10 minutes. PARP catalysis is initiated with the addition of 5 μL of 100 μM β-nicotinamide adenine dinucleotide (NAD+) (part number 4684-096-02) with activated DNA (part number 4671-096-06). After 10 minutes of catalysis the reaction is quenched by solvent aspiration followed by irrigation of the assay wells 4 times with phosphate buffered saline (PBS) containing 0.1% t-octylphenoxypolyethoxyethanol (Triton® X-100). Mouse Anti-poly ADP ribose (PAR) monoclonal antibody, goat antimouse immunoglobulin G (IgG)-horse radish peroxidase (HRP) conjugate and HRP substrate are added according to the manufacture's specifications to generate a colorimetric signal proportional to PARP catalytic activity. An IC50 for the test compound is calculated from the equation Absorbance=(Amax−background)/(1+([cmpd]/IC50)^n)+background fit to the 12 point test compound concentration gradient via nonlinear least squares.
(§1) Here, pIC50=−log10 IC50, where IC50 is the molar concentration of the compound at 50% inhibition.

Jurkat cell line = assay: PARP cellular chemopotentiation assay (MTS viability, with and without Temozolomide); assay type: cell-based; conditions: Chemopotentiation factor: ratio of EC50 for cell viability without and with 100 μM TMZ, Jurkat cells, 96 hours of treatment
Description: Potentiation Factor (PF50) Determination from PARP Cellular Chemopotentiation Assay
Jurkat cell line was maintained according to the supplier (American Type Culture Collection (Rockville, Md.)). Cells were seeded in 96-well tissue culture microplates at 10,000 cells per well and cultured for 24 hours prior to addition of compounds, TMZ (Temozolomide) or DMSO (dimethylsulfoxide) vehicle. After 96 hours of treatment, the conversion of MTS ([3-(4,5-dimethylthiazol-2-yl)-5-(3-carboxymethoxyphenyl)-2-(4-sulfophenyl)-2H-tetrazolium, inner salt], Promega, Madison, Wis.) by metabolically active cells was determined through measuring the OD490 nm with a Spectramax microplate reader (Molecular Devices, San Diego, Calif.). To generate concentration-response curves, cells were treated in duplicate with a range of serial compound dilutions (final DMSO concentration was 0.5%) in the absence or presence of 100 μM TMZ chemoreagent. The percentage of viable cells per well was calculated by correction for background and normalizing against DMSO-treated cells. EC50 values for inhibition of cell viability were calculated using XLfit4 MicroSoft Excel curve-fitting software. Chemopotentiation factor PF50 was calculated as the ratio of EC50 values of cells co-treated without and with TMZ, respectively.
as §1

T1 sequence (P09874 whole entry): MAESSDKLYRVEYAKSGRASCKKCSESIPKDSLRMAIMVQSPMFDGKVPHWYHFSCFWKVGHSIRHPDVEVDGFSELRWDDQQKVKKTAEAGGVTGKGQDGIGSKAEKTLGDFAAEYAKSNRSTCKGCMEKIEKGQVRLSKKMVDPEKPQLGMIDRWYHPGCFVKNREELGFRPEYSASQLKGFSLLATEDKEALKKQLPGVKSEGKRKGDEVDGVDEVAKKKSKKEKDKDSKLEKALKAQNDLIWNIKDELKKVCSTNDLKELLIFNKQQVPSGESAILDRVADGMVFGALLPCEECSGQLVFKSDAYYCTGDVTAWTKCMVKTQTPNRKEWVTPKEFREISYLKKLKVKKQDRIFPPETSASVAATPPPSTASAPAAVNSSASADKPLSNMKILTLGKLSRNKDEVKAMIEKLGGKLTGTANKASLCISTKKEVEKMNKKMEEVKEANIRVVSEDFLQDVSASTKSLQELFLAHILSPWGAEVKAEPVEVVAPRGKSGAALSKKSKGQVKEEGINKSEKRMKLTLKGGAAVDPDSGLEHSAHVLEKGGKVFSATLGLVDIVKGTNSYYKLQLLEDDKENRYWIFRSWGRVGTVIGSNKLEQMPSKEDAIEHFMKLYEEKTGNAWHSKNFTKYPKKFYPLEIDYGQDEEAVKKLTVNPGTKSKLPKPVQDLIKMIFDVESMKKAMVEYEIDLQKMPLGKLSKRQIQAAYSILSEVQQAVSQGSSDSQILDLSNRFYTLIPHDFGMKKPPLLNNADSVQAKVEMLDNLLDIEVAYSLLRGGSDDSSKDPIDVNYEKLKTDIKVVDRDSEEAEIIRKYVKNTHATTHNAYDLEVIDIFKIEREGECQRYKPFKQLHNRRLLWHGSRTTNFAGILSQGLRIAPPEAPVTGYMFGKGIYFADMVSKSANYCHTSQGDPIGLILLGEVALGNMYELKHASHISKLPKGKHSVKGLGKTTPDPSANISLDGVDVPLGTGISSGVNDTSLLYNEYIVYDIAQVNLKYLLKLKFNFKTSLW

SMILES | IC50 (PARP) | PF50 (Jurkat cell line)
CCNC(=O)c1ccc(N2CCN(Cc3cnc4c(c3)[nH]c(=O)n3cccc43)CC2)cc1 [Example 2, N-ethyl-4-(4-((6-oxo-5,6-dihydropyrido[2,3-e]pyrrolo[1,2-c]pyrimidin-3-yl)methyl)piperazin-1-yl)benzamide] | ≤ 10 nM | >1000
CNC(=O)c1ccc(N2CCN(Cc3cnc4c(c3)[nH]c(=O)n3cccc43)CC2)cc1 [Example 3, N-methyl-4-(4-((6-oxo-5,6-dihydropyrido[2,3-e]pyrrolo[1,2-c]pyrimidin-3-yl)methyl)piperazin-1-yl)benzamide] | ≤ 10 nM | >24000
O=C(NC1CC1)c1ccc(N2CCN(Cc3cnc4c(c3)[nH]c(=O)n3cccc43)CC2)cc1 [Example 4, N-cyclopropyl-4-(4-((6-oxo-5,6-dihydropyrido[2,3-e]pyrrolo[1,2-c]pyrimidin-3-yl)methyl)piperazin-1-yl)benzamide] | ≤ 10 nM | >1000
CNC(=O)c1ccc(N2CCN(Cc3cnc4c(c3)[nH]c(=O)n3cccc43)CC2)c(Cl)c1 [Example 5, 3-chloro-N-methyl-4-(4-((6-oxo-5,6-dihydropyrido[2,3-e]pyrrolo[1,2-c]pyrimidin-3-yl)methyl)piperazin-1-yl)benzamide] | ≤ 10 nM | >63
CCNC(=O)c1ccc(N2CCN(Cc3cnc4c(c3)[nH]c(=O)n3cccc43)CC2)c(Cl)c1 [Example 6, 3-chloro-N-ethyl-4-(4-((6-oxo-5,6-dihydropyrido[2,3-e]pyrrolo[1,2-c]pyrimidin-3-yl)methyl)piperazin-1-yl)benzamide] | ≤ 10 nM | >1000
CNC(=O)c1ccc(N2CCN(Cc3cnc4c(c3)[nH]c(=O)n3cccc43)CC2)c(C)c1 [Example 7, N,3-dimethyl-4-(4-((6-oxo-5,6-dihydropyrido[2,3-e]pyrrolo[1,2-c]pyrimidin-3-yl)methyl)piperazin-1-yl)benzamide] | ≤ 10 nM | >900
CCNC(=O)c1ccc(N2CCN(Cc3cnc4c(c3)[nH]c(=O)n3cccc43)CC2)c(C)c1 [Example 8, N-ethyl-3-methyl-4-(4-((6-oxo-5,6-dihydropyrido[2,3-e]pyrrolo[1,2-c]pyrimidin-3-yl)methyl)piperazin-1-yl)benzamide] | ≤ 10 nM | >1600
CNC(=O)c1ccc(N2CCN(Cc3cnc4c(c3)[nH]c(=O)n3cccc43)CC2)c(F)c1 [Example 9, 3-fluoro-N-methyl-4-(4-((6-oxo-5,6-dihydropyrido[2,3-e]pyrrolo[1,2-c]pyrimidin-3-yl)methyl)piperazin-1-yl)benzamide] | ≤ 10 nM | >16
CCNC(=O)c1ccc(N2CCN(Cc3cnc4c(c3)[nH]c(=O)n3cccc43)CC2)c(F)c1 [Example 10, N-ethyl-3-fluoro-4-(4-((6-oxo-5,6-dihydropyrido[2,3-e]pyrrolo[1,2-c]pyrimidin-3-yl)methyl)piperazin-1-yl)benzamide] | ≤ 10 nM | >60

Reference: US8980902B2, “Poly (ADP-ribose) polymerase (PARP) inhibitors” (Takeda Pharmaceutical Company Limited, priority 2009, dated 2015)
